The text below walks through data of ChEMBL document CHEMBL2331223, “Synthesis of 2-aminomethyl-4-phenyl-1-azabicyclo[2.2.1]heptanes via LiAlH₄-induced reductive cyclization of 2-(4-chloro-2-cyano-2-phenylbutyl)aziridines and evaluation of their antimalarial activity” (Bioorg Med Chem Lett, 2013).

The subject of series [1] is Plasmodium falciparum. Briefly: Resistant index, ratio of IC50 for chloroquine-resistant Plasmodium falciparum Dd2 to IC50 for chloroquine-sensitive Plasmodium falciparum D10. Type of series: functional.
The test system of series [2] is Plasmodium falciparum. Briefly: Antimalarial activity against chloroquine-resistant Plasmodium falciparum Dd2. In kind it is functional, organism-based.
Series [3] concerns CHO. The experiment in a line: Cytotoxicity against CHO cells by MTT assay. In kind it is cell-based. Particulars: Cricetulus griseus.
For series [4], the system named is Plasmodium falciparum. The experiment in a line: Antimalarial activity against chloroquine-sensitive Plasmodium falciparum D10. Type of series: functional, organism-based.
The nature of series [5]: Selectivity index, ratio of IC50 for CHO cells to IC50 for chloroquine-sensitive Plasmodium falciparum D10. In kind it is toxicity, cell-based. Particulars: hamster, read-out: Ratio IC50.

For the compound `c1ccc(CNC[C@H]2C[C@@]3(c4ccccc4)CCN2C3)cc1` (relative stereo), the “Ratio IC50” value in series [1] is recorded as 4.4. In addition, the IC50 in series [2] was 78.5 µM; in series [3] it was more than 300 µM; in series [4], 18.4 µM.
As for `Cc1ccc(CNC[C@H]2C[C@@]3(c4ccccc4)CCN2C3)cc1` (relative stereo), the “Ratio IC50” value in series [1] turned out to be 1.5. Also, the IC50 in series [2] stood at 15.9 µM; in series [3] it was 163 µM; in series [4], 10.3 µM. Further, the selectivity ratio in series [5] was 15.7.
The matching figures for `Clc1ccc(CNC[C@H]2C[C@@]3(c4ccccc4)CCN2C3)cc1` (relative stereo): 2, 11.8 µM, 90.4 µM, 6.01 µM and 15.1.
Take `c1ccc(CNC[C@@H]2C[C@@]3(c4ccccc4)CCN2C3)cc1` (relative stereo): the “Ratio IC50” value in series [1] was 9.6. Moreover, the IC50 turned out to be 24.2 µM in series [2], 231 µM in series [3] and 2.63 µM in series [4]. In series [5], the selectivity ratio worked out at 91.2.
For `Cc1ccc(CNC[C@@H]2C[C@@]3(c4ccccc4)CCN2C3)cc1` (relative stereo), in that order: 12.5, 10 µM, 160 µM, 0.81 µM and 200.
With `Clc1ccc(CNC[C@@H]2C[C@@]3(c4ccccc4)CCN2C3)cc1` (relative stereo), the “Ratio IC50” value in series [1] amounted to 1.7. The IC50 in series [2] came out at 2.4 µM; in series [3] it was 71.2 µM; in series [4], 1.39 µM. Besides, the selectivity ratio in series [5] stood at 51.1.
Regarding `CC[C@H]1CN2CCc3cc(OC)c(OC)cc3[C@@H]2C[C@@H]1C[C@H]1NCCc2cc(OC)c(OC)cc21` [EMETINE], half-maximal inhibition in series [3] (IC50) was put at 0.33 µM.

Usually IC50 stands for the concentration at which inhibition is half-maximal. Read a high IC50 as weaker potency.
